{"source": "paper PMC12460146", "about": "“Impact of metabolic enzyme activity variability on dabrafenib disposition” (Frontiers in Pharmacology, 2025)", "key": {"CYP3A4.1": {"molecular_target": "T1, CYP3A4.1 (Homo sapiens, UniProt P08684)", "T1 construct": "made in house; host or cells: insect cells (baculovirus, pFastBac-Dual)", "assay": "In vitro enzyme kinetics assay using CYP3A4 baculosomes: CYP3A4.1", "format": "in vitro ADME", "conditions": "dabrafenib 5–250 µM", "procedure": "(§1) Recombinant CYP3A4 and CYPb5 proteins were prepared according to our previously established protocol ([Fang et al., 2017]). Briefly, dual expression vectors (pFastBac-Dual) were used to construct CYP3A4-CYPOR and CYPb5-CYPOR expression plasmids. Subsequently, the corresponding baculosomes were harvested by ultracentrifugation using the baculovirus-insect cell expression system, and the target proteins were confirmed. Protein expression levels for each type were qualitatively and quantitatively assessed by Western blotting and BCA assay, respectively.\n(§2) The 200 µL incubation system comprised 0.1 M Tris-HCl, 5 µg CYP3A4.1 or other CYP3A4 variants, 5 µg CYPb5, 1 mM NADPH, and dabrafenib. A dabrafenib concentration of 10 µM was used to evaluate variant specific metabolic activity. Michaelis-Menten kinetics were assessed using dabrafenib concentrations of 5, 10, 20, 50, 100, and 250 µM. Subsequent processing steps followed the procedures outlined in Section 2.3."}, "[1]": {"test_system": "human liver microsomes (HLM)", "assay": "Michaelis-Menten kinetics of dabrafenib metabolism (hydroxy-dabrafenib formation) in HLM", "format": "in vitro ADME", "conditions": "HLM 0.5 mg/mL, dabrafenib 0.5–200 µM", "procedure": "(§3) The 200 µL incubation system contained 0.1 M Tris-HCl (pH = 7.6), 0.5 mg/mL RLM or HLM, 1 mM NADPH, and dabrafenib. […] Carbamazepine (100 ng/mL) was added as the IS. […] Hydroxy-dabrafenib concentrations were quantified via UPLC-MS/MS.\n(§4) For kinetic studies, Michaelis-Menten curves were obtained using dabrafenib concentrations (0.5–200 µM) in RLM and HLM. Samples were processed as above. Curves were plotted (dabrafenib concentration vs. V) and fitted nonlinearly (Prism 9, GraphPad).\nThe concentrations of dabrafenib and hydroxy-dabrafenib were quantified by UPLC-MS/MS. Chromatographic separation was performed on a Waters Acquity UPLC BEH C18 column (2.1 mm × 50 mm, 1.7 µm particle size) maintained at 40 °C. The mobile phase consisted of 0.1% aqueous formic acid (A) and acetonitrile (B), delivered at 0.3 mL/min with the following gradient program: 90% A (0–0.15 min), linear transition to 10% A (0.15–0.8 min), 10% A (0.8–1.5 min), and return to 90% A (1.5–2 min). Total run time was 2 min. Detection employed a Waters Xevo TQS triple quadrupole mass spectrometer (Milford, MA, United States) operated in positive-ion multiple reaction monitoring mode. Quantification transitions were m/z 520.10 → 307.20 for dabrafenib, m/z 536.20 → 323.10 for hydroxy-dabrafenib, and m/z 237.10 → 194.10 for IS."}, "CYP3A4.28": {"molecular_target": "T2, CYP3A4.28 (Homo sapiens, UniProt P08684, L22V)", "T2 construct": "made in house; host or cells: insect cells (baculovirus, pFastBac-Dual)", "T2 sequence (P08684 whole entry L22V)": "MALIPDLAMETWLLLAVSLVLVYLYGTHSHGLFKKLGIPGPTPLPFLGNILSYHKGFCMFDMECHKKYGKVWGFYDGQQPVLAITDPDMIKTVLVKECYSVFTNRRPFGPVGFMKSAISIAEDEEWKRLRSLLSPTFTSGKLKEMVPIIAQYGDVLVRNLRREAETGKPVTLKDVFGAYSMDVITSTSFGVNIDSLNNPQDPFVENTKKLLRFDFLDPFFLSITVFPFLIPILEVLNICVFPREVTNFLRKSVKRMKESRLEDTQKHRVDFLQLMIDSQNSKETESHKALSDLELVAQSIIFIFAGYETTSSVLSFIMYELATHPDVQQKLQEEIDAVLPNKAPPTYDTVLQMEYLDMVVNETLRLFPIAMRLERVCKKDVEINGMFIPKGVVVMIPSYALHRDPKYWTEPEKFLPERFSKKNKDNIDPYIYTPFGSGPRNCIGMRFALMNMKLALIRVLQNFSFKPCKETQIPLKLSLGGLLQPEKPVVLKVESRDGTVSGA", "assay": "In vitro enzyme kinetics assay using CYP3A4 baculosomes: CYP3A4.28", "format": "in vitro ADME", "procedure": "as §1, §2"}, "[2]": {"conditions": "cited from earlier work"}, "[3]": {"test_system": "rat liver microsomes (RLM)", "assay": "Michaelis-Menten kinetics of dabrafenib metabolism (hydroxy-dabrafenib formation) in RLM", "format": "in vitro ADME", "conditions": "RLM 0.5 mg/mL, dabrafenib 0.5–200 µM", "procedure": "RLM was obtained according to established methods ([Wang et al., 2015]). Briefly, rat livers were weighed and homogenized in ice-cold phosphate buffer containing […] sucrose. The homogenate was centrifuged at 17,000 × g for 15 min at 4 °C. The supernatant was transferred to new tubes and recentrifuged at 17,000 × g for 15 min. The resulting supernatant was then ultracentrifuged at 100,000 × g for 60 min at 4 °C. The microsomal pellet was resuspended in ice-cold 0.01 mmol/L PBS (pH = 7.2–7.4). Protein concentration was determined using a Bradford assay kit (Thermo Scientific, Waltham, MA, United States).\nas §3, §4\nThe concentrations of dabrafenib and hydroxy-dabrafenib were quantified by UPLC-MS/MS. […] Quantification transitions were m/z 520.10 → 307.20 for dabrafenib, m/z 536.20 → 323.10 for hydroxy-dabrafenib, and m/z 237.10 → 194.10 for IS."}, "CYP3A4.8": {"molecular_target": "T3, CYP3A4.8 (Homo sapiens, UniProt P08684, R130Q)", "T3 construct": "made in house; host or cells: insect cells (baculovirus, pFastBac-Dual)", "T3 sequence (P08684 whole entry R130Q)": "as the sequence (P08684 whole entry L22V) above, with V22L, R130Q counted along it", "assay": "In vitro enzyme kinetics assay using CYP3A4 baculosomes: CYP3A4.8", "format": "in vitro ADME", "procedure": "as §1, §2"}, "CYP3A4.20": {"molecular_target": "T4, CYP3A4.20 (Homo sapiens, UniProt P08684)", "T4 construct": "made in house; host or cells: insect cells (baculovirus, pFastBac-Dual)", "T4 sequence (P08684 with tags, fused parts or gaps limits assumed)": "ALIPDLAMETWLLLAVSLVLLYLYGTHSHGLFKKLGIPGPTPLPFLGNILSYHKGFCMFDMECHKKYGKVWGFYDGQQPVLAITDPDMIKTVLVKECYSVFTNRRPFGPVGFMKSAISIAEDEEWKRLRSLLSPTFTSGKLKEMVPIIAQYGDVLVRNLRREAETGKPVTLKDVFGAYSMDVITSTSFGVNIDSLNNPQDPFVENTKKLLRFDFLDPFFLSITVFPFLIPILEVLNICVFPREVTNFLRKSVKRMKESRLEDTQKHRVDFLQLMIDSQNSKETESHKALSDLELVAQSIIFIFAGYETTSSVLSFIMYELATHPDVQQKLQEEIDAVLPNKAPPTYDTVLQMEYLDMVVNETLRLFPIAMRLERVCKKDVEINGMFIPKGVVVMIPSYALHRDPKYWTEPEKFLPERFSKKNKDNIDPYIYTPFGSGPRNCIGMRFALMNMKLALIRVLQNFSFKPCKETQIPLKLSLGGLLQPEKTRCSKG", "assay": "In vitro enzyme kinetics assay using CYP3A4 baculosomes: CYP3A4.20", "format": "in vitro ADME", "procedure": "as §1, §2"}}, "note": "“Also recorded” adds a separate entry of the source."}
{"compound": "CC(C)(C)c1nc(-c2cccc(NS(=O)(=O)c3c(F)cccc3F)c2F)c(-c2ccnc(N)n2)s1", "note": "[Dabrafenib]", "values": [{"measurement": "Vmax", "setting": "CYP3A4.1", "value": "0.266 ± 0.007", "unit": "pmoL/L/min/μg CYP3A4"}, {"measurement": "Km", "setting": "[1]", "value": "3.5 ± 0.56", "unit": "µM"}, {"measurement": "Vmax", "setting": "[1]", "value": "0.16 ± 0.001", "unit": "pmol/L/min/µg"}, {"measurement": "increase of relative clearance vs CYP3A4.1", "setting": "CYP3A4.28", "value": 26.67, "unit": "%"}, {"measurement": "Vmax", "setting": "CYP3A4.28; dabrafenib 5–250 µM", "value": "0.362 ± 0.026", "unit": "pmoL/L/min/μg CYP3A4"}, {"measurement": "Cmax", "setting": "[2]; single 150 mg oral dose, clinical, ref Puszkiel et al., 2019, Balakirouchenane et al., 2021", "value": "2,160 ng/mL"}, {"measurement": "oral bioavailability (F)", "setting": "[2]; single-dose administration, ref Denton et al., 2013", "value": 95, "unit": "%"}, {"measurement": "Km", "setting": "[3]", "value": "14.6 ± 3.08", "unit": "µM"}, {"measurement": "Vmax", "setting": "[3]", "value": "0.14 ± 0.01", "unit": "pmol/L/min/µg"}, {"measurement": "decrease of relative clearance vs CYP3A4.1", "setting": "CYP3A4.8", "value": 66.67, "unit": "%"}, {"measurement": "Vmax", "setting": "CYP3A4.8; dabrafenib 5–250 µM", "value": "0.247 ± 0.030", "unit": "pmoL/L/min/μg CYP3A4"}, {"measurement": "metabolic activity toward dabrafenib (in words)", "setting": "CYP3A4.20", "value": "nearly complete loss of activity; also recorded: lack catalytic activity"}]}
